Where “and” joins values, the source holds several entries; their conditions need not be identical. Equal values may be shown once. Read-outs that look alike come from different tables or passages of the source.
Assays:
[1] = molecular target: T1, PRDM9 (amino acids: 195–415) (Homo sapiens, UniProt Q9NQV7); assay: PRDM9 methyltransferase activity assay (3H-SAM scintillation proximity assay); assay type: biochemical
T1 construct: PRDM9 (amino acids: 195–415)
T1 sequence (Q9NQV7 195-415): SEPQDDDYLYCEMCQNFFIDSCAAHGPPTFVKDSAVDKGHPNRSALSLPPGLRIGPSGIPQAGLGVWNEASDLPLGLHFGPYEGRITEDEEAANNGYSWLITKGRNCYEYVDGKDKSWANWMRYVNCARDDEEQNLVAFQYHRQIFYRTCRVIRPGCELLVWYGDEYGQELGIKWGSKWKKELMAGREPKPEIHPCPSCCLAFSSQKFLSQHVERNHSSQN
Protocol: Methyltransferase activity assays for PRDM9 (amino acids: 195–415) were performed by monitoring the incorporation of tritium-labeled methyl group from ^3H-SAM to H3 (1–25) peptide using scintillation proximity assay (SPA). The enzymatic reactions were performed at 23 °C with 30 min incubation in 20 mM Tris-HCl (pH 7.5), 5 mM DTT, 0.01% Triton X-100 and 1% DMSO containing 71 μM of SAM (5 μM of ^3H-SAM), 4 μM of biotinylated H3 (1–25) peptide and 5 nM of PRDM9. For PRDM7, reactions were performed at 23 °C with 90 min incubation in 20 mM BTP pH 9.0, 5 mM DTT, 0.01% Triton X-100 and 1% DMSO containing 900 μM of SAM (5 μM of ^3H-SAM), 4 μM of biotinylated H3 (1–25) peptide and 100 nM of enzyme. […] To stop the reactions, 10 μL of 7.5 M guanidine hydrochloride was added to 10 μL of reaction mixture, followed by 60 μL of buffer (20 mM Tris, pH 8.0), mixed, and transferred to a 384-well streptavidin coated Flash-plate. After mixing, the mixtures in Flash-plate were incubated for 2 h, and the CPM counts were measured using TopCount plate reader. All enzymatic reactions were performed in triplicate, and IC50 values were determined by fitting the data to Four Parameter Logistic equation using the GraphPad Prism software.

HCC1143 = assay: CelltiterGlo viability cell assay; assay type: cell-based; details: up to 30 μM; days 3 and 6; matched control line
Protocol: (§1) Supplementary Figure 13. […] Viability of
(§2) (a) Multiple Myeloma lines and (b) Breast Cancer cell lines following 3 or 6 days treatment with […]
(§3) manufacturer’s instructions as described in the Supplementary methods. Data are normalized to DMSO control. N=3 biological replicates, +/- SEM. Source data are provided as a Source Data […]
(§4) CelltiterGlo viability cell assay
(§5) Cells were seeded in 96 well plates at per-well densities of 10000 (MDA-MB436, ATCC-HTB130), 15000 (8226, kind gift from Rodger Tiedemann, Princess Margaret Cancer Centre), […]
(§6) kind gift from Rodger Tiedemann, Princess Margaret Cancer Centre) and 50000 (CAL851, kind gift from Mathieu Lupien, Princess Margaret Cancer Centre) and were treated at increasing concentrations of compounds ranging from 0.01 μM to 30 μM and assessed for proliferation using CelltiterGlo (Promega) following manufacturer’s instructions, as readout on days 3 and 6 as indicated. All cell lines were mycoplasma negative, as determined by MycoAlert™ Mycoplasma Detection Kit(Lonza). […]

HCC1806 = assay: CelltiterGlo viability cell assay; assay type: cell-based; details: up to 30 μM; days 3 and 6; Prdm9 expressing line
Protocol: as §1, §2, §3, §4, §5, §6

MDA-MB-436 = assay: CelltiterGlo viability cell assay; assay type: cell-based; details: up to 30 μM; days 3 and 6; matched control line
Protocol: as §1, §2, §3, §4, §5, §6

With `COc1cc(OC)cc(-c2noc(N3CCN(C)C4(CCN(c5ccnc(C)c5)CC4)C3)n2)c1` [MRK-740] the “PRDM9-Activity %, single experiments” value ([1]; 0.00305176 µM compound, 0.00305176 µM) was 94.4267% and 95.25% and 97.1828% and 103.784% and 103.017%, the activity at 0.00305176 µM ([1]; 0.00305176 µM compound, n=6, read-out: PRDM9-Activity %, Average) was 97.6% and the activity at 0.00305176 µM ([1]; 0.00305176 µM compound, read-out: PRDM9-Activity %, single experiments) was 91.9%. The “PRDM9-Activity %, single experiments” value ([1]; 0.00610352 µM compound, 0.00610352 µM) was 85.0663% and 85.348% and 95.7626% and 97.3747% and 91.3487%, the activity at 0.00610352 µM ([1]; 0.00610352 µM compound, n=6 MRK-740, n=3 MRK-740-NC, read-out: PRDM9-Activity %, Average) was 90% and the activity at 0.00610352 µM ([1]; 0.00610352 µM compound, read-out: PRDM9-Activity %, single experiments) was 84.8%. The “PRDM9-Activity %, single experiments” value ([1]; 0.012207 µM compound, 0.012207 µM) was 78.4578% and 80.6028% and 86.1288% and 97.1828% and 87.357%, the activity at 0.012207 µM ([1]; 0.012207 µM compound, n=6 MRK-740, n=3 MRK-740-NC, read-out: PRDM9-Activity %, Average) was 84.8% and the activity at 0.012207 µM ([1]; 0.012207 µM compound, read-out: PRDM9-Activity %, single experiments) was 79.3%. For the same compound, the “PRDM9-Activity %, single experiments” value ([1]; 0.0244141 µM compound, 0.0244141 µM) was 75.966% and 79.6061% and 75.3435% and 72.6952% and 77.5697%, the activity at 0.0244141 µM ([1]; 0.0244141 µM compound, n=6 MRK-740, n=3 MRK-740-NC, read-out: PRDM9-Activity %, Average) was 75.8% and the activity at 0.0244141 µM ([1]; 0.0244141 µM compound, read-out: PRDM9-Activity %, single experiments) was 73.4%. The “PRDM9-Activity %, single experiments” value ([1]; 0.0488281 µM compound, 0.0488281 µM) was 59.9538% and 62.5322% and 63.7138% and 61.8331% and 62.9462%, the activity at 0.0488281 µM ([1]; 0.0488281 µM compound, n=6 MRK-740, n=3 MRK-740-NC, read-out: PRDM9-Activity %, Average) was 62.6% and the activity at 0.0488281 µM ([1]; 0.0488281 µM compound, read-out: PRDM9-Activity %, single experiments) was 64.9%. For the same compound, the “PRDM9-Activity %, single experiments” value ([1]; 0.0976562 µM compound, 0.0976562 µM) was 47.0617% and 46.4983% and 51.163% and 50.5105% and 50.3953%, the activity at 0.0976562 µM ([1]; 0.0976562 µM compound, n=6 MRK-740, n=3 MRK-740-NC, read-out: PRDM9-Activity %, Average) was 49% and the activity at 0.0976562 µM ([1]; 0.0976562 µM compound, read-out: PRDM9-Activity %, single experiments) was 48.6%. For the same compound, the “PRDM9-Activity %, single experiments” value ([1]; 0.195312 µM compound, 0.195312 µM) was 35.2529% and 35.7729% and 39.7252% and 37.4223% and 38.9192%, the activity at 0.195312 µM ([1]; 0.195312 µM compound, n=6 MRK-740, n=3 MRK-740-NC, read-out: PRDM9-Activity %, Average) was 36.7% and the activity at 0.195312 µM ([1]; 0.195312 µM compound, read-out: PRDM9-Activity %, single experiments) was 33%. For the same compound, the “PRDM9-Activity %, single experiments” value ([1]; 0.390625 µM compound, 0.390625 µM) was 22.6425% and 27.2793% and 26.6754% and 26.8289% and 30.4368%, the activity at 0.390625 µM ([1]; 0.390625 µM compound, n=6 MRK-740, n=3 MRK-740-NC, read-out: PRDM9-Activity %, Average) was 26.6% and the activity at 0.390625 µM ([1]; 0.390625 µM compound, read-out: PRDM9-Activity %, single experiments) was 25.4%. For the same compound, the “PRDM9-Activity %, single experiments” value ([1]; 0.78125 µM compound, 0.78125 µM) was 15.1455% and 15.3839% and 20.1505% and 16.3507% and 20.304%, the activity at 0.78125 µM ([1]; 0.78125 µM compound, n=6 MRK-740, n=3 MRK-740-NC, read-out: PRDM9-Activity %, Average) was 17.5% and the activity at 0.78125 µM ([1]; 0.78125 µM compound, read-out: PRDM9-Activity %, single experiments) was 17.8%. For the same compound, the “PRDM9-Activity %, single experiments” value ([1]; 1.5625 µM compound, 1.5625 µM) was 9.274% and 10.0537% and 12.7044% and 15.0841% and 15.1608%, the activity at 1.5625 µM ([1]; 1.5625 µM compound, n=6 MRK-740, n=3 MRK-740-NC, read-out: PRDM9-Activity %, Average) was 12% and the activity at 1.5625 µM ([1]; 1.5625 µM compound, read-out: PRDM9-Activity %, single experiments) was 9.56%. The “PRDM9-Activity %, single experiments” value ([1]; 3.125 µM compound, 3.125 µM) was 7.757% and 8.32% and 10.555% and 9.672% and 9.096%, the activity at 3.125 µM ([1]; 3.125 µM compound, n=6 MRK-740, n=3 MRK-740-NC, read-out: PRDM9-Activity %, Average) was 8.8% and the activity at 3.125 µM ([1]; 3.125 µM compound, read-out: PRDM9-Activity %, single experiments) was 7.39%. For the same compound, the “PRDM9-Activity %, single experiments” value ([1]; 6.25 µM compound, 6.25 µM) was 4.5935% and 6.024% and 7.753% and 9.173% and 6.448%, the activity at 6.25 µM ([1]; 6.25 µM compound, n=6 MRK-740, n=3 MRK-740-NC, read-out: PRDM9-Activity %, Average) was 6.57% and the activity at 6.25 µM ([1]; 6.25 µM compound, read-out: PRDM9-Activity %, single experiments) was 5.42%. For the same compound, the “PRDM9-Activity %, single experiments” value ([1]; 12.5 µM compound, 12.5 µM) was 3.185% and 3.8568% and 5.834% and 4.491% and 4.606%, the activity at 12.5 µM ([1]; 12.5 µM compound, n=6 MRK-740, n=3 MRK-740-NC, read-out: PRDM9-Activity %, Average) was 4.37% and the activity at 12.5 µM ([1]; 12.5 µM compound, read-out: PRDM9-Activity %, single experiments) was 4.27%. For the same compound, the “PRDM9-Activity %, single experiments” value ([1]; 25 µM compound, 25 µM) was 2.7301% and 2.167% and 2.752% and 4.337% and 5.373% and 4.529%, the activity at 25 µM ([1]; 25 µM compound, n=6 MRK-740, n=3 MRK-740-NC, read-out: PRDM9-Activity %, Average) was 3.65% and the “PRDM9-Activity %, single experiments” value ([1]; 50 µM compound, 50 µM) was 2.405% and 1.7984% and 3.488% and 4.913% and 5.45% and 4.529%. It also gave an activity at 50 µM ([1]; 50 µM compound, n=6 MRK-740, n=3 MRK-740-NC, read-out: PRDM9-Activity %, Average) of 3.76%, an Activity % ([1]; PRDM9, 1µM compound, Exp1, Exp2, 1 µM) of 11% and an activity at 1 µM ([1]; PRDM9, 1µM compound, Exp1, Exp2, read-out: Activity %) of 10%. For the same compound, the Activity % ([1]; PRDM9, 10µM compound, Exp1, Exp2, 10 µM) was 2.5%, the activity at 10 µM ([1]; PRDM9, 10µM compound, Exp1, Exp2, read-out: Activity %) was 3% and the IC50 ([1]; biotinylated H3 (1–25) peptide, balanced conditions, mean ± standard deviation) was 80 ± 16 nM. For the same compound, the “Effect on proliferation (in words)” value (HCC1143) was “did not have any significant effect”, the “Effect on proliferation (in words)” value (HCC1806) was “did not have any significant effect” and the “Effect on proliferation (in words)” value (MDA-MB-436) was “did not have any significant effect”.

Source: PMC6917776, “Discovery of a chemical probe for PRDM9” (Nature Communications, 2019)
